Assay results taken from patent US8450350B2, “Triazoles as inhibitors of fatty acid synthase” (Infinity Pharmaceuticals, Inc., priority 2010, dated 2013).

Legend:
[1] = target: T1, human FASN (Homo sapiens, UniProt P49327); experiment: FASN NADPH consumption assay; type: biochemical; settings: IC50 class, FASN NADPH Consumption Assay (symbols without asterisk); human FASN purified from SKBR3 cells
T1 construct: purified from SKBR3 cells using procedures modified from those in Jayakumar et al; endogenous in cells; host or cells: SKBR3 cells (ATCC); endogenous FASN purified in house by ammonium sulfate precipitation and mono Q chromatography
Description: Human FASN protein (SEQ ID NO 1) was purified from SKBR3 cells using procedures modified from those in Jayakumar et al., PNAS (1995) 92:8695-8699. SKBR3 cells were obtained from ATCC and grown in DMEM high glucose medium supplemented with 10% FBS, 1 μg/mL bovine pancreas insulin, 100 U/mL penicillin and 100 μg/mL streptomycin. The confluent cells were trypsinized and washed three times with PBS buffer before frozen in liquid N2 and stored at −80° C. Frozen cells were thawed on ice and re-suspended in lysis buffer (25 mM Tris-HCl, pH 7.0, 15 mM NaCl, 1 mM EDTA, and 1 mM DTT) with protease inhibitors. The cells were lysed by sonication, and the cell debris was removed by centrifugation at 20,000 rpm for 30 min. To the supernatant, neutralized saturated ammonium sulfate solution was added to a final concentration of 35%. The solution was left on ice for 1 hr, and the precipitated proteins were harvested by centrifugation at 20,000 rpm for 30 min. The proteins were re-dissolved in lysis buffer without NaCl and loaded on a mono Q column. Bound proteins were eluted with a linear gradient of NaCl in lysis buffer. Each fraction was analyzed by SDS-PAGE and FASN NADPH consumption assay. The fractions containing FASN were pooled and concentrated to 2-3 mg/mL. Glycerol was added to 20%, and the protein was frozen in liquid N2 and stored at −80° C.
All chemicals were purchased from Sigma (St. Louis, Mo.). The procedures of NADPH consumption assay were similar to those described in Cox et al., PNAS (1983) 80:4233-4237. On a 96-well polypropylene microplate, dilution series (typical concentrations 60 nM-1.0 mM) of inhibitor compounds were prepared in DMSO, of which 4.0 μL each was transferred to a black polystyrene assay microplate and mixed with 36 μL FASN assay buffer (50 mM potassium phosphate, pH 7.0, 1.0 mM EDTA, 0.01% NP-40) plus 5.0 mM fresh DTT. FASN protein (40 μL 150 nM FASN) was added per well, and the microplate was incubated at 37° C. for 30 min. Enzyme activity measurement was initiated by addition of 20 μL 5× substrate mixture to final concentrations of 60 nM FASN, 2.4 nM-40 μM compound, 0.2 mM NADPH, 50 μM butyryl-CoA, 0.5 mM malonyl-CoA in 100 μL assay buffer plus 5.0 mM DTT and 4.0% DMSO. NADPH consumption was monitored kinetically by fluorescence (λEX=340 nm, λEm=460 nm) on an EnVision 2100 multilabel plate reader (Perkin Elmer, Waltham, Mass.). FASN enzyme activity (slope) in the presence of 4% DMSO was used as maximum control, whereas background (minimum control) was measured by omission of malonyl-CoA in the substrate mixture. Inhibition curves were fitted by a logistic function to yield IC50 values: […]

[2] = target: T1, human FASN; experiment: FASN Scintillation Proximity Flashplate assay; type: biochemical; settings: IC50 class, FASN Scintillation Proximity Flashplate Assay (symbols with asterisk); human FASN purified from SKBR3 cells
Description: Human FASN protein (SEQ ID NO 1) was purified from SKBR3 cells using procedures modified from those in Jayakumar et al., PNAS (1995) 92:8695-8699. SKBR3 cells were obtained from ATCC and grown in DMEM high glucose medium supplemented with 10% FBS, 1 μg/mL bovine pancreas insulin, 100 U/mL penicillin and 100 μg/mL streptomycin. The confluent cells were trypsinized and washed three times with PBS buffer before frozen in liquid N2 and stored at −80° C. Frozen cells were thawed on ice and re-suspended in lysis buffer (25 mM Tris-HCl, pH 7.0, 15 mM NaCl, 1 mM EDTA, and 1 mM DTT) with protease inhibitors. The cells were lysed by sonication, and the cell debris was removed by centrifugation at 20,000 rpm for 30 min. […] Each fraction was analyzed by SDS-PAGE and FASN NADPH consumption assay. […]
Acetyl-coenzyme A, malonyl-coenzyme A, NADPH, bovine gamma globulin, and orlistat were purchased from Sigma (St. Louis, Mo.). […] The plates were read in a Wallac 1450 Microbeta Plus liquid scintillation counter (Perkin Elmer, Waltham, Mass.), and counts per minute (CPM) were collected over 2 min. Each inhibitor well CPM was compared to the maximum FASN enzyme activity (Max) CPM and the background (Min) CPM, as measured by omission of FASN enzyme in the background well. % Inhibition values were calculated, and curves were fitted by a four-parameter logistic function to yield IC50 values: […]

T1 sequence (P49327 whole entry): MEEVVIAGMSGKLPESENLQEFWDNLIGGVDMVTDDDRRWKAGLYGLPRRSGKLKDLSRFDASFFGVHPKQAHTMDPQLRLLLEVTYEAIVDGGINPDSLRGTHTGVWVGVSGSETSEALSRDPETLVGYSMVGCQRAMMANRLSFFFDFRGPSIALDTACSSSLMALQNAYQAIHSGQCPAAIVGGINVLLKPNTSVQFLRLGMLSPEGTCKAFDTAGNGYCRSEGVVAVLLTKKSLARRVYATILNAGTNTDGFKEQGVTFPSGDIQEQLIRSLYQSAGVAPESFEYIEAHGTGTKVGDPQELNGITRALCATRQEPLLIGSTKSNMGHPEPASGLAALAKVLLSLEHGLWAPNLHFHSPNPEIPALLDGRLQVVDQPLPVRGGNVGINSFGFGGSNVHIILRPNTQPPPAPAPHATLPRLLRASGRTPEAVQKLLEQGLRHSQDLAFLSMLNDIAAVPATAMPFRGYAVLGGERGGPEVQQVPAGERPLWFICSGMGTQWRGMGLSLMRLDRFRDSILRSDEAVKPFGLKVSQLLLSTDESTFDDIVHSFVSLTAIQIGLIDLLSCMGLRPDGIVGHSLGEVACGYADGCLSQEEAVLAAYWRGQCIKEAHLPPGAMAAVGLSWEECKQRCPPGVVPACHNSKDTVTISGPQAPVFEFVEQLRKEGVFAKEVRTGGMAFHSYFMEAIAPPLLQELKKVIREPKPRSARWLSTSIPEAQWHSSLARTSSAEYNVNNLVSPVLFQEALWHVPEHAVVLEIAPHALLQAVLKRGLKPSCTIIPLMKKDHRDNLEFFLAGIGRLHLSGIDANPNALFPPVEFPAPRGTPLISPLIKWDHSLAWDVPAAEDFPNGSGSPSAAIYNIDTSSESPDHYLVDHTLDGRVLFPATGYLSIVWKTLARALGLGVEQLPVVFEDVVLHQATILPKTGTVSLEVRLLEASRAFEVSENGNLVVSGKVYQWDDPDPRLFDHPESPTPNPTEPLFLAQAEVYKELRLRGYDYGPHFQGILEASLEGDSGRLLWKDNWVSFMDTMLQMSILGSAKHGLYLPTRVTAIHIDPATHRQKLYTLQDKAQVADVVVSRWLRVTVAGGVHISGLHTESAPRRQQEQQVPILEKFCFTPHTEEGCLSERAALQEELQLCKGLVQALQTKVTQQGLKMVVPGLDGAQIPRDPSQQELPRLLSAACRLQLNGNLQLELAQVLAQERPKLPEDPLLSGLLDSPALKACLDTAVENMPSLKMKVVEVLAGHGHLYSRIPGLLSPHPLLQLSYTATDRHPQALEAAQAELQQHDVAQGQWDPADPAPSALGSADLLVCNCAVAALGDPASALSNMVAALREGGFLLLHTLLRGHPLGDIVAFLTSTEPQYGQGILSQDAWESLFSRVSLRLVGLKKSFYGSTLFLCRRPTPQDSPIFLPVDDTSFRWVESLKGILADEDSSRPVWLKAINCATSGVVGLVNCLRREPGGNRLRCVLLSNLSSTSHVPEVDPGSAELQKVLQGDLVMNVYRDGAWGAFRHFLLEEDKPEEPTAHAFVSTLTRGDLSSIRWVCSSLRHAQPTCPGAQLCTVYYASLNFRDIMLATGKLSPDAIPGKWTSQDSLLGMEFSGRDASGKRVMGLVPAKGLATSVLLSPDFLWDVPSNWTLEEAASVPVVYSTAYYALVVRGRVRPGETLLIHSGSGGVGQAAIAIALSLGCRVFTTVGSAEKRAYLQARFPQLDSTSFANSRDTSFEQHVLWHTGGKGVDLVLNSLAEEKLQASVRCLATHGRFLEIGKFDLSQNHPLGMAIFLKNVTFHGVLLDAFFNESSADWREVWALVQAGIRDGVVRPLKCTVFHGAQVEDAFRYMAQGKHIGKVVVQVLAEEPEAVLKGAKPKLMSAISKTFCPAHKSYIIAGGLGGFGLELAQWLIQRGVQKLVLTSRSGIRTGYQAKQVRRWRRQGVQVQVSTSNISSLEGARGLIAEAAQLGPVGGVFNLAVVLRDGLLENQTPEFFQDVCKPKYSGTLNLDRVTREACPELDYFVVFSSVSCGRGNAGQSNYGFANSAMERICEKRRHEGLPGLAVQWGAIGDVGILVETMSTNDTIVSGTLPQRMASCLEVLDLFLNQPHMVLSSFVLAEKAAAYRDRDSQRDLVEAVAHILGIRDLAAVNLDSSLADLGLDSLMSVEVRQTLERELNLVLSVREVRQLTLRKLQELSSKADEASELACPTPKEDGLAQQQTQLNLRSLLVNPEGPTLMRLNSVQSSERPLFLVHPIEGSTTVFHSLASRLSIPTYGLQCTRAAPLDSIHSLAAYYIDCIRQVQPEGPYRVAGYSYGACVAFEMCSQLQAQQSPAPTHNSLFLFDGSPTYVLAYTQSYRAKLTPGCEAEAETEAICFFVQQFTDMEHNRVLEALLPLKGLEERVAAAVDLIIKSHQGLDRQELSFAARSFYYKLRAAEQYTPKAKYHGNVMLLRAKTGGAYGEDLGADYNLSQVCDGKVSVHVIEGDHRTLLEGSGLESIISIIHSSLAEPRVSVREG

Row | SMILES | IC50 [1] [µM] | IC50 [2] [µM]
1 | CC(=O)N1CCC(N(Cc2ccccc2)C(=O)n2nnc(-c3ccccc3Oc3ccccc3)c2C#N)CC1 | > 1 | 
2 | N#Cc1c(-c2c(Cl)cccc2Cl)nnn1C(=O)N1CCCC2CCCCC21 (stereo not shown) | 0.2 to 0.5 | 
3 | O=C(N1CCCC2CCCCC21)n1nnc2ncccc21 (stereo not shown) | > 1 | 
4 | CCN(C(=O)n1nnc(-c2ccccc2Oc2ccccc2)c1C#N)c1ccccc1 | < 0.2 | 
5 | C[C@@H](NC(=O)c1ccccc1-c1nnn(C(=O)N2CCCC3CCCCC32)c1C#N)c1ccccc1 (stereo partly shown) | 0.2 to 0.5 | 
6 | N#Cc1c(-c2c(F)cccc2F)nnn1C(=O)N1CCCC2CCCCC21 (stereo not shown) | 0.2 to 0.5 | 
7 | CCN(C(=O)n1nnc(-c2c(F)cccc2Cl)c1C#N)c1ccccc1F | < 0.2 | 
8 | CCN(C(=O)n1nncc1-c1ccccc1)C1CCCCC1 | > 1 | 
9 | CCN(C(=O)n1nnc(-c2ccccc2CCc2ccccc2)c1C#N)c1ccccc1 |  | < 0.2
10 | C[C@@H]1[C@@H](NC(=O)c2c(-c3ccccc3Oc3ccccc3)nnn2C(=O)N2CCCC3CCCCC32)C[C@@H]2C[C@H]1C2(C)C (stereo partly shown) | > 1 | 
11 | CCN(C(=O)n1nnc2ccccc21)c1ccc(C(=O)O)cc1 | > 1 | 
12 | CCN(C(=O)n1nnc2ncccc21)c1ccccc1 | 0.5 to 1 | 
13 | C[C@H]1[C@H](NC(=O)c2c(-c3ccccc3Oc3ccccc3)nnn2C(=O)N2CCCC3CCCCC32)C[C@H]2C[C@@H]1C2(C)C (stereo partly shown) | > 1 | 
14 | CCN(C(=O)n1nnc(-c2c(F)cccc2F)c1C#N)c1ccccc1 | < 0.2 | 
15 | COC(=O)C1CCc2ccccc2N1C(=O)n1nnc(-c2ccccc2Oc2ccccc2)c1C#N (stereo not shown) | 0.5 to 1 | 
16 | CCN(C(=O)n1nnc(-c2c(F)cccc2Cl)c1C#N)c1ccccc1 | < 0.2 | 
17 | N#Cc1c(-c2ccccc2CCc2ccccc2)nnn1C(=O)N1CCCC2CCCCC21 (stereo not shown) | < 0.2 | 

Row | SMILES | IC50 [1] [µM] | IC50 [2] [µM]
18 | CCN(C(=O)n1nnc(C2CCCCC2)c1C#N)c1ccccc1 | 0.2 to 0.5 | 
19 | CCOC(=O)c1c(C2CC3C=CC2C3)nnn1C(=O)N1CCCC2CCCCC21 (stereo not shown) | > 1 | 
20 | CCOC(=O)c1c(-c2ccccc2Oc2ccccc2)nnn1C(=O)N1CCCC2CCCCC21 (stereo not shown) [ethyl 1-(decahydroquinoline-1-carbonyl)-4-(2-phenoxyphenyl)-1H-1,2,3-triazole-5-carboxylate] | 0.5 to 1 | 
21 | CCN(C(=O)n1nnc2ccccc21)c1ccccc1F | 0.5 to 1 | 
22 | CCN(C(=O)n1cc(-c2ccccc2Cl)nn1)c1ccccc1 | 0.5 to 1 | 
23 | C[C@@H]1[C@@H](NC(=O)c2ccccc2-c2nnn(C(=O)N3CCCC4CCCCC43)c2C#N)C[C@@H]2C[C@H]1C2(C)C (stereo partly shown) | 0.5 to 1 | 
24 | CCOC(=O)c1c(-c2ccccc2Oc2ccccc2)nnn1C(=O)N(CC)c1ccccc1 | 0.5 to 1 | 
25 | C[C@H]1[C@H](NC(=O)c2ccccc2-c2nnn(C(=O)N3CCCC4CCCCC43)c2C#N)C[C@H]2C[C@@H]1C2(C)C (stereo partly shown) | 0.2 to 0.5 | 
26 | CCN(C(=O)n1cc(-c2ccccc2)nn1)C1CCCCC1 | > 1 | 
27 | CCN(C(=O)n1nncc1-c1ccccc1Cl)c1ccccc1F | > 1 | 
28 | CCN(C(=O)n1cc(-c2ccccc2Cl)nn1)c1ccccc1F | > 1 | 
29 | O=C(N1CCCC2CCCCC21)n1nnc2ccccc21 (stereo not shown) | > 1 | 
30 | CC(C)N(C(=O)n1nnc(-c2c(F)cccc2F)c1C#N)c1cccc(C(=O)O)c1 [3-(5-cyano-4-(2,6-difluorophenyl)-N-isopropyl-1H-1,2,3-triazole-1-carboxamido)benzoic acid] |  | < 0.2
31 | CCN(C(=O)n1nncc1-c1ccccc1Cl)c1ccccc1 | > 1 | 
32 | CC(C)(C)OC(=O)N1CCC(N(Cc2ccccc2)C(=O)n2nnc(-c3ccccc3Oc3ccccc3)c2C#N)CC1 | > 1 | 
33 | CCN(C(=O)n1nnc(-c2c(Cl)cccc2Cl)c1C#N)c1ccccc1 | < 0.2 | 
34 | C[C@H](NC(=O)c1ccccc1-c1nnn(C(=O)N2CCCC3CCCCC32)c1C#N)c1ccccc1 (stereo partly shown) | < 0.2 | 
